EP4656642A1, “ESTROGEN RECEPTOR PROTEOLYSIS TARGETING CHIMERA COMPOUND AND USE THEREOF” (GAN & LEE PHARM CO., LTD, priority 2023, dated 2024)

Key:
Type in all cases: cell-based
MCF-7 cells = experiment: Inhibition of cell proliferation of MCF-7 cells (CCK-8, 9 days); conditions: treated for 9 days, CCK-8 kit (Table 6)
Excerpt: Test Example 4 Inhibitory effect of the PROTAC compounds disclosed in the present disclosure on cell proliferation of MCF-7 cells
The complete medium required for MCF-7 cells (source ATCC) was DMEM (gibco, Product number :11995-065) basal medium containing 10% fetal bovine serum. MCF-7 cells were inoculated in 96-well plates at a density of 800 cells/well, and different concentrations of the PROTAC compounds 1-55 provided in the embodiments of the present disclosure and a positive control sample ARV-471 (source: Innochem) were prepared to treat cells, and cells were treated at 37°C in a cell culture incubator with 5% CO2 for 9 days. Cell viability was detected using a CCK -8 kit (Beyotime , Product number: C0040) according to the manufacturer's instruction. […] Table 5 IC50 values for inhibition of the proliferation of MCF-7 cells by the PROTAC compounds of the present disclosure and positive control sample

ERα [1] = biological target: T1, ERα (Homo sapiens, UniProt P03372); experiment: Degradation of ERα in MCF-7 cells (immunoblotting, 4 h)
T1 sequence (P03372 1-595): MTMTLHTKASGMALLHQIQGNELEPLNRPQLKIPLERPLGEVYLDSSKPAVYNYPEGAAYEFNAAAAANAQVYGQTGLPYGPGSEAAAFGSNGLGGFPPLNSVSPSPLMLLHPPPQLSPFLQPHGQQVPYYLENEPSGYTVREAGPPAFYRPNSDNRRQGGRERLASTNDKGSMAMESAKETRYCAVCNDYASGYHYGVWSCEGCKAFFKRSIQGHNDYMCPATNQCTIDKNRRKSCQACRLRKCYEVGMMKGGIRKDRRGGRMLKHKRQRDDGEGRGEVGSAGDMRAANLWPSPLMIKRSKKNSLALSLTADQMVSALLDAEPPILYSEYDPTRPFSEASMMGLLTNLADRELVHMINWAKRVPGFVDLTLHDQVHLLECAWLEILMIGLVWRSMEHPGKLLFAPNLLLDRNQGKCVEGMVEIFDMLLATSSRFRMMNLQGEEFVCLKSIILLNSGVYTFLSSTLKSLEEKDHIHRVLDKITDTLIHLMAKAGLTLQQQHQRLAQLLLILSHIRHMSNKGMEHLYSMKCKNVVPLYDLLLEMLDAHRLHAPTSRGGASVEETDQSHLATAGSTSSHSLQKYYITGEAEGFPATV
Procedure: MCF-7 cells were inoculated into 6-well plates at a density of 3×10^5 cells/well and cultured at 37°C, 5% CO2 for 24h. After the cells were attached to the wall, 1µL of the compound solution in dimethyl sulfoxide (final concentration 0.15-1000nM) was added and continued to be cultured in incubator at 37°C with 5% CO2 for 4 h. After 4 h, the culture medium was discarded, and each well was washed once with pre-cooled 1×DPBS, and the cells were lysed with a mixture of 50 µL of RIPA lysis buffer (P0013B, Beyotime) and 1× protease inhibitor (P1005, Beyotime), and then centrifuged at 14,000 g for 30 min at 4°C after resting on ice for 20 min, and the supernatant was carefully collected to detect the protein level of ERα by protein immunoblotting (Immunoblotting).
Protein immunoblotting: The total protein concentration in the collected cell lysate supernatant was determined by BCA Protein Concentration Assay Kit (Enhanced) (P0009, Beyotime). According to the total protein concentration detected by BCA, the protein was adjusted to 1 µg/µL with RIPA lysis buffer and 5× SDS-PAGE protein loading buffer (MB01015, Genscript), and the protein was denatured by water bath at 95°C for 5 min, and then centrifuged after denaturation to enrich the condensate on the wall of the centrifuge tubes as a loading sample. […] At the end of electrophoresis, the proteins in the SDS-PAGE gels were transferred to a PVDF membrane at a constant voltage of 100 V for 60 min. After that, the PVDF membrane corresponding to ERα protein and internal reference protein was cut out and incubated in 1×QµickBlock blocking solution (P0252, Beyotime) for 30 min at room temperature on a shaker. […] Protein profiles were analyzed by Image Studio Lite analysis software for grayscale values. Grayscale correction values were calculated for each sample using the Formula: corrected grayscale value = grayscale value of the target protein /corresponding grayscale value of the internal reference. The degradation rate for the compounds was then calculated by comparing the corrected grayscale values of the compound group to the control group. Table 7 Degradation rate (%) of ERα by the PROTAC compounds of the present disclosure and positive control sample in MCF-7 cells

ERα [2] = biological target: T1, ERα; experiment: Degradation of ERα in T-47D cells (immunoblotting, 4 h); set-up: host or cells: T-47D
Procedure: T-47D cells were inoculated into 6-well plates at a density of 3×10^5 cells/well and cultured at 37°C, 5% CO2 for 24 h. After the cells were attached to the wall, 1µL of the compound solution in dimethyl sulfoxide (final concentration 0.15-1000 nM) was added and continued to be cultured in the incubator with 5% CO2 at 37°C for 4 h. After 4 h, the culture medium was discarded, and each well was washed once with pre-cooled 1×DPBS, and the cells were lysed with a mixture of 50 µL of RIPA lysis buffer (P0013B, Beyotime) and 1× protease inhibitor (P1005, Beyotime), and then centrifuged at 14,000 g for 30 min at 4°C after resting on ice for 20 min, and the supernatant was carefully collected to detect the protein level of ERα by protein immunoblotting (Immunoblotting).

| IC50 (MCF-7 cells) [nM] | Degradation rate (%) of ERα in MCF-7 cells (ERα [1]; 1nM compound) [%] | Degradation rate (%) of ERα in MCF-7 cells (ERα [1]; 10nM compound) [%] | Degradation rate (%) of ERα in T-47D cells (ERα [2]; 1nM compound) [%] | Degradation rate (%) of ERα in T-47D cells (ERα [2]; 10nM compound) [%] | IC50 (MCF-7 cells; Homo sapiens, MCF7, 216 h) [nM] | SMILES |
| --- | --- | --- | --- | --- | --- | --- |
| 15.2 | 52 | 82 | 73 | 89 | – | O=C1CCC(N2Cc3c(ccc4c3OCC43CCN(C(=O)CN4CCC5(CC4)CCN(c4ccc([C@@H]6c7ccc(O)cc7CC[C@@H]6c6ccccc6)cc4)CC5)CC3)C2=O)C(=O)N1 (stereo partly drawn) [A62] |
| 3.24 | 69 | 68 | 67 | 80 | – | O=C1CCC(N2Cc3c(ccc4c3OCC43CCN(C(=O)CN4CCC5(CCN(c6ccc([C@@H]7c8ccc(O)cc8CC[C@@H]7c7ccccc7)cc6)CC5)C4)CC3)C2=O)C(=O)N1 (stereo partly drawn) [A63] |
| 206 | 13 | 47 | 12 | 61 | – | O=C1CCC(N2C(=O)c3cc4c(cc3C2=O)OC2(CCN(C(=O)CN3CCC5(CC3)CCN(c3ccc([C@@H]6c7ccc(O)cc7CC[C@@H]6c6ccccc6)cc3)CC5)CC2)C4)C(=O)N1 (stereo partly drawn) [A64] |
| 125 | 23 | 23 | 14 | 50 | – | O=C1CCC(N2Cc3c(ccc4c3OC3(CC4)CCN(C(=O)CN4CCC5(CC4)CCN(c4ccc([C@@H]6c7ccc(O)cc7CC[C@@H]6c6ccccc6)cc4)CC5)CC3)C2=O)C(=O)N1 (stereo partly drawn) [A65] |
| 19.1 | 11 | 40 | 35 | 77 | – | O=C1CCC(N2C(=O)c3ccc4c(c3C2=O)OCC42CCN(C(=O)CN3CCC4(CC3)CCN(c3ccc([C@@H]5c6ccc(O)cc6CC[C@@H]5c5ccccc5)cc3)CC4)CC2)C(=O)N1 (stereo partly drawn) [A68] |
| – | 28 | 62 | 73 | 87 | – | O=C1CCC(N2Cc3c(ccc4c3OCC43CCN(CC(=O)N4CCC5(CC4)CCN(c4ccc([C@@H]6c7ccc(O)cc7CC[C@@H]6c6ccccc6)cc4)CC5)CC3)C2=O)C(=O)N1 (stereo partly drawn) [A74] |
| – | 39 | 61 | 55 | 81 | – | CN(C[C@H]1CC[C@H](C(=O)N2CCC3(CC2)COc2c3ccc3c2CN(C2CCC(=O)NC2=O)C3=O)CC1)[C@@H]1CCN(c2ccc([C@@H]3c4ccc(O)cc4CC[C@@H]3c3ccccc3)cc2)C[C@@H]1F (stereo partly drawn) [D12] |
| – | – | – | – | – | 34.8 | C[C@]12CC[C@@H]3c4ccc(O)cc4CC[C@H]3[C@@H]1CC[C@@H]2O [E2] |
| – | – | – | 47 | 81 | – | O=C1CCC(N2Cc3c(ccc4c3OCC43CCN(C[C@H]4CC[C@H](OC5CCN(c6ccc([C@@H]7c8ccc(O)cc8CC[C@@H]7c7ccccc7)cc6)CC5)CC4)CC3)C2=O)C(=O)N1 (stereo partly drawn) [G24] |
| 32400 | 37 | 66 | – | – | – | O=C1CCC(N2Cc3c(ccc4c3OCC43CCN(S(=O)(=O)[C@H]4CC[C@H](C(=O)N5CCN(c6ccc([C@@H]7c8ccc(O)cc8CC[C@@H]7c7ccccc7)cc6)CC5)CC4)CC3)C2=O)C(=O)N1 (stereo partly drawn) [G26] |
| – | -13 | -16 | -6 | -15 | – | O=C1CCC(N2C(=O)c3cc4c(cc3C2=O)OC2(CC4)CN(CC3CCN(c4ccc([C@@H]5c6ccc(O)cc6CC[C@@H]5c5ccccc5)cc4)CC3)C2)C(=O)N1 (stereo partly drawn) [H1] |
| – | -2 | 10 | 24 | 23 | – | O=C1CCC(N2C(=O)c3ccc4c(c3C2=O)OCC42CCN(C3CC4(CCN(c5ccc([C@@H]6c7ccc(O)cc7CC[C@@H]6c6ccccc6)cc5)CC4)C3)CC2)C(=O)N1 (stereo partly drawn) [L17] |
| 14.8 | – | – | – | – | – | CC1(C(=O)N2CCC(N3CCC4(CC3)COc3c4ccc4c3CN(C3CCC(=O)NC3=O)C4=O)CC2)CCN(c2ccc([C@@H]3c4ccc(O)cc4CC[C@@H]3c3ccccc3)cc2)CC1 (stereo partly drawn) [N 1] |

| SMILES | IC50 (MCF-7 cells) [nM] | Degradation rate (%) of ERα in MCF-7 cells (ERα [1]; 1nM compound) [%] | Degradation rate (%) of ERα in MCF-7 cells (ERα [1]; 10nM compound) [%] | Degradation rate (%) of ERα in T-47D cells (ERα [2]; 1nM compound) [%] | Degradation rate (%) of ERα in T-47D cells (ERα [2]; 10nM compound) [%] | IC50 (MCF-7 cells; Homo sapiens, MCF7, 216 h) [nM] |
| --- | --- | --- | --- | --- | --- | --- |
| O=C1CCC(N2Cc3cc4c(cc3C2=O)CCC2(CN(CC3CCC5(CC3)CCN(c3ccc([C@@H]6c7ccc(O)cc7CC[C@@H]6c6ccccc6)cc3)CC5)C2)O4)C(=O)N1 (stereo partly drawn) [A38] | 240 | -1 | -24 | – | – | – |
| O=C1CCC(N2Cc3cc4c(cc3C2=O)OC2(CC4)CN(C3CN(C4CCN(c5ccc([C@@H]6c7ccc(O)cc7CC[C@@H]6c6ccccc6)cc5)CC4)C3)C2)C(=O)N1 (stereo partly drawn) [A56] | 2790 | – | – | 38 | 38 | – |
| O=C1CCC(N2Cc3cc4c(cc3C2=O)CCC2(CN(C3CN(C5CCN(c6ccc([C@@H]7c8ccc(O)cc8CC[C@@H]7c7ccccc7)cc6)CC5)C3)C2)O4)C(=O)N1 (stereo partly drawn) [A57] | 2790 | – | – | 34 | 43 | – |
| O=C1CCC(N2Cc3c(ccc4c3OCC43CCN(C4CN(C5CCN(c6ccc([C@@H]7c8ccc(O)cc8CC[C@@H]7c7ccccc7)cc6)CC5)C4)CC3)C2=O)C(=O)N1 (stereo partly drawn) [A58] | 12.8 | 42 | 69 | 35 | 71 | – |
| O=C1CCC(N2C(=O)c3cc4c(cc3C2=O)OC2(CCN(C3CCN(C5CN(c6ccc([C@@H]7c8ccc(O)cc8CC[C@@H]7c7ccccc7)cc6)C5)CC3)CC2)C4)C(=O)N1 (stereo partly drawn) [A59] | 905 | 11 | 11 | 42 | 50 | – |
| O=C1CCC(N2Cc3cc4c(cc3C2=O)OC2(CC4)CCN(C(=O)CN3CCC4(CC3)CCN(c3ccc([C@@H]5c6ccc(O)cc6CC[C@@H]5c5ccccc5)cc3)CC4)CC2)C(=O)N1 (stereo partly drawn) [A67] | 3.96 | 27 | 67 | 26 | 76 | – |
